One assay deals with A549. Briefly: Methylene Blue Cell Growth Inhibition Assay, A549. The format is cell-based. The following applies: Homo sapiens, 72 h, read-out: MEB A549 IC50. The protocol: (§1) Normal human foreskin fibroblasts (HFF), human colon (HCT116, RKO), lung (H460, A549) and breast (MCF7) tumor cell lines were cultured in high glucose DMEM (Life Technologies) containing 10% fetal bovine serum (FBS) at 37° C. in a humidified 5% CO2, 95% air incubator. Cells were harvested using trypsin/EDTA, counted using a haemocytometer, and plated in 100 μL of culture media per well, at the following densities, in a 96-well tissue culture plate (Falcon 3075): HFF 5,000 cells/well, HCT116 3,000 cells/well, RKO 2,500 cells/well, H460 2,500 cells/well, A549 5,000 cells/well, MCF7 4,000 cells/well. The next day, compounds were diluted in low glucose DMEM containing 100 μg/mL gentamicin, at twice the final required concentration, from 10 mM stock solutions in DMSO. 100 μL/well of these dilutions were added to the 100 μL of media currently in the assay plates. Medium containing 0.6% DMSO was added to control wells. The final concentration of DMSO in all wells was 0.3%. Cells were incubated at 37° C., 5% CO2 for 72 h. Medium was removed by aspiration. Cell biomass was estimated by staining cells with 80 μL per well methylene blue (Sigma M9140, 0.5% in 50:50 ethanol:water), and incubation at room temperature for 30-60 min. Stain was removed by aspiration and the plates rinsed by immersion in water, then air-dried. To release stain from the cells, 100 μL of solubilization solution was added (1% N-lauroyl sarcosine, Sodium salt, Sigma L5125, in PBS), and plates were shaken gently for about 30 min. Optical density at 620 nm was measured on a microplate reader. Percent inhibition of cell growth was calculated relative to vehicle treated control wells. Concentration of compound that inhibits 50% of cell growth (IC50) was interpolated using nonlinear regression (Levenberg-Marquardt) and the equation, y=Vmax*(1−(x/(K+x)))+Y2, where “K” was equal to the IC50.

In another assay the test system is H460. Briefly: Methylene Blue Cell Growth Inhibition Assay, H460. The format is cell-based. The settings on record: Homo sapiens, NCI-H460, 72 h, read-out: MEB H460 IC50. The protocol:
as §1

Assay [1] concerns Normal human foreskin fibroblasts (HFF). Briefly: Methylene Blue Cell Growth Inhibition Assay, HFF. The format is cell-based. The settings on record: Fibroblast, 72 h, read-out: MEB HFF IC50. As to the method: as §1
The next assay addresses T1, PLK1 kinase domain (Homo sapiens, UniProt P53350).
T1 construct: made in house; host or cells: baculovirus infected T. ni cells
Briefly: Assay for Inhibition of PLK1 (33P SPA kinase assay). The format is biochemical. The settings on record: 2 nM PLK1 kinase domain, 1 μM ATP; read-out: PLK1 pIC50 (converted). As to the method: All procedures were performed at 4° C. Cells were lysed in 50 mM HEPES, 200 mM NaCl, 50 mM imidazole, 5% glycerol; pH 7.5. The homogenate was centrifuged at 14K rpm in a SLA-1500 rotor for 1 h and the supernatant filtered through a 1.2 micron filter. The supernatant was loaded onto a Nickel chelating Sepharose (Amersham Pharmacia) column and washed with lysis buffer. Protein was eluted using 20%, 30% and 100% buffer B steps where buffer B is 50 mM HEPES, 200 mM NaCl, 300 mM imidazole, 5% glycerol; pH 7.5. Fractions containing PLK were determined by SDS-PAGE. Fractions containing PLK were diluted five-fold with 50 mM HEPES, 1 mM DTT, 5% glycerol; pH 7.5, then loaded on an SP Sepharose (Amersham Pharmacia) column. After washing the column with 50 mM HEPES, 1 mM DTT, 5% glycerol; pH 7.5, PLK was step eluted with 50 mM HEPES, 1 mM DTT, 500 mM NaCl; 5% glycerol; pH 7.5. PLK was concentrated using a 10 kDa molecular weight cutoff membrane and then loaded onto a Superdex 200 gel filtration (Amersham Pharmacia) column equilibrated in 25 mM HEPES, 1 mM DTT, 500 mM NaCl, 5% glycerol; pH 7.5. Fractions containing PLK were determined by SDS-PAGE. PLK was pooled, aliquoted and stored at −80° C. Samples were quality controlled using mass spectrometry, N-terminal sequencing and amino acid analysis.
B. Enzyme activity +/− inhibitors was determined as follows:
All measurements were obtained under conditions where signal production increased linearly with time and enzyme. Test compounds were added to white 384-well assay plates (0.1 μL for 10 μL and some 20 μl assays, 1 μL for some 20 μL assays) at variable known concentrations in 100% DMSO. DMSO (1-5% final, as appropriate) and EDTA (65 mM in reaction) were used as controls.
Reaction Mix (10 or 20 μL) was quickly added to each well immediately following addition of enzyme via automated liquid handlers and incubated 1-1.5 h at 22° C. The 20 μL enzymatic reactions were stopped with 50 μL of stop mix (50 mM EDTA, 4.0 mg/mL Streptavidin SPA beads in Standard Dulbecco's PBS (without Mg^2+ and Ca^2+), 50 μM ATP) per well. The 10 μL reactions were stopped with 10 μL of stop mix (50 mM EDTA, 3.0 mg/mL Streptavidin-coupled SPA Imaging Beads (“LeadSeeker”) in Standard Dulbecco's PBS (without Mg^2+ and Ca^2+), 50 μM ATP) per well. Plates were sealed with clear plastic seals, spun at 500×g for 1 min or settled overnight, and counted in Packard TopCount for 30 seconds/well (regular SPA) or imaged using a Viewlux imager (LeadSeeker SPA). Signal above background (EDTA controls) was converted to percent inhibition relative to that obtained in control (DMSO-only) wells.

Data on three compounds can be found in patent US20080214563A1, “Benzimidazole Thiophene Compounds As Plk Modulators” (priority 2005, published 2008).

Each structure is given as a SMILES string. A value given as a limit tells only on which side of the number the result lay.

T1 sequence (P53350 21-346): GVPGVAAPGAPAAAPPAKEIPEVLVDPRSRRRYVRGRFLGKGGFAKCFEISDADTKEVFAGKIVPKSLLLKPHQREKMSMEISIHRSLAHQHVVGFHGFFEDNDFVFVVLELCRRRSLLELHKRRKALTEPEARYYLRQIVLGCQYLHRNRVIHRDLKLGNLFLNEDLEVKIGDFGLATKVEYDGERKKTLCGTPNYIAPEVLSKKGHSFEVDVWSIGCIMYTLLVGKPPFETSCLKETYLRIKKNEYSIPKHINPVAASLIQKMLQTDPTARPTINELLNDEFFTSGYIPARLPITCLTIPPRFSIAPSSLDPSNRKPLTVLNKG

Regarding `C[C@@H](Oc1cc(-n2cnc3cc(-c4cnn(C)c4)ccc32)sc1C(N)=O)c1ccccc1Cl` [Example 9, 3-{[(1R)-1-(2-Chlorophenyl)ethyl]oxy}-5-[5-(1-methyl-1H-pyrazol-4-yl)-1H-benzimidazol-1-yl]-2-thiophenecarboxamide], the IC50 in the assay on A549 is less than 100 nM; in the assay on H460, less than 100 nM; in assay [1], 100 to 1000 nM.

In the case of `C[C@@H](Oc1cc(-n2cnc3cc(-c4ccc(N5CCNCC5)nc4)ccc32)sc1C(N)=O)c1ccccc1Cl` [Example 7, 3-{[(1R)-1-(2-Chlorophenyl)ethyl]oxy}-5-{5-[6-(1-piperazinyl)-3-pyridinyl]-1H-benzimidazol-1-yl}-2-thiophenecarboxamide], the IC50 at PLK1 kinase domain was less than 10 nM.

For the compound `C[C@@H](Oc1cc(-n2cnc3cc(-c4ccc(N5CCNCC5)nc4)ccc32)sc1C(N)=O)c1ccccc1C(F)(F)F` [Example 1, 5-{5-[6-(1-piperazinyl)-3-pyridinyl]-1H-benzimidazol-1-yl}-3-({(1R)-1-[2-(trifluoromethyl)phenyl]ethyl}oxy)-2-thiophenecarboxamide], the IC50 at PLK1 kinase domain was less than 10 nM; in the assay on A549, 100 to 1000 nM; in the assay with H460, 100 to 1000 nM; in assay [1], greater than 1000 nM.
